Assay results reported in patent US8648088B2, “Ethynyl nitrogen containing heteroaryl pyrazolidin-3-one derivatives” (Hoffmann-La Roche Inc., priority 2011, dated 2014).

Legend:
[1] = target: T1, human mGlu5a receptor (Homo sapiens, UniProt P41594); test: Intracellular Ca2+ mobilization assay (mGlu5 PAM); type: cell-based; set-up: expressed in transfected cells; conditions: for Emax: HEK293, maximal response in % of maximal stimulatory effect of saturating L-glutamate, HEK-293 human mGlu5a, read-out: Eff. (%); for EC50: HEK-293 cells stably expressing human mGlu5a, L-glutamate added at EC20, read-out: EC50 (nM) mGlu5PAM
Protocol: A monoclonal HEK-293 cell line stably transfected with a cDNA encoding for the human mGlu5a receptor was generated; for the work with mGlu5 Positive Allosteric Modulators (PAMs), a cell line with low receptor expression levels and low constitutive receptor activity was selected to allow the differentiation of agonistic versus PAM activity. Cells were cultured according to standard protocols (Freshney, 2000) in Dulbecco's Modified Eagle Medium with high glucose supplemented with 1 mM glutamine, 10% (vol/vol) heat-inactivated bovine calf serum, Penicillin/Streptomycin, 50 μg/ml hygromycin and 15 μg/ml blasticidin (all cell culture reagents and antibiotics from Invitrogen, Basel, Switzerland).
About 24 hrs before an experiment, 5×10^4 cells/well were seeded in poly-D-lysine coated, black/clear-bottomed 96-well plates. The cells were loaded with 2.5 μM Fluo-4AM in loading buffer (1×HBSS, 20 mM HEPES) for 1 hr at 37° C. and washed five times with loading buffer. The cells were transferred into a Functional Drug Screening System 7000 (Hamamatsu, Paris, France), and 11 half logarithmic serial dilutions of test compound at 37° C. were added and the cells were incubated for 10-30 min with on-line recording of fluorescence. Following this pre-incubation step, the agonist L-glutamate was added to the cells at a concentration corresponding to EC20 (typically around 80 μM) with on-line recording of fluorescence; in order to account for day-to-day variations in the responsiveness of cells, the EC20 of glutamate was determined immediately ahead of each experiment by recording of a full dose-response curve of glutamate.
Responses were measured as peak increase in fluorescence minus basal (i.e. fluorescence without addition of L-glutamate), normalized to the maximal stimulatory effect obtained with saturating concentrations of L-glutamate. Graphs were plotted with the % maximal stimulatory using XLfit, a curve fitting program that iteratively plots the data using Levenburg Marquardt algorithm. The single site competition analysis equation used was y=A+((B−A)/(1+((x/C)D))), where y is the % maximal stimulatory effect, A is the minimum y, B is the maximum y, C is the EC50, x is the log 10 of the concentration of the competing compound and D is the slope of the curve (the Hill Coefficient). From these curves the EC50 (concentration at which half maximal stimulation was achieved), the Hill coefficient as well as the maximal response in % of the maximal stimulatory effect obtained with saturating concentrations of L-glutamate were calculated.
A depression of the signal observed after addition of the EC20 concentration of L-glutamate was indicative of an inhibitory activity of the test compound.
In the table below are shown the prepared compounds 1-24 with corresponding results (EC50 in nM).

[2] = target: T1, human mGlu5a receptor; test: [3H]MPEP binding competition on human mGlu5a receptor membranes; set-up: expressed in transfected cells; host or cells: EBNA cells (transient), membrane homogenates; conditions: [3H]MPEP (2 nM) competition, EBNA cell membranes, 1 h at 4° C.; read-out: Human mGluR5 Ki
Protocol: Examples 18, 20-22 have been tested on human mGluR5 receptor using the following method:
For binding experiments, cDNA encoding human mGlu 5a receptor was transiently transfected into EBNA cells using a procedure described by Schlaeger and Christensen [Cytotechnology 15:1-13 (1998)]. Cell membrane homogenates were stored at −80° C. until the day of assay where upon they were thawed and resuspended and polytronized in 15 mM Tris-HCl, 120 mM NaCl, 100 mM KCl, 25 mM CaCl2, 25 mM MgCl2 binding buffer at pH 7.4 to a final assay concentration of 20 μg protein/well.
Saturation isotherms were determined by addition of twelve [^3H]MPEP concentrations (0.04-100 nM) to these membranes (in a total volume of 200 μl) for 1 h at 4° C. Competition experiments were performed with a fixed concentration of [^3H]MPEP (2 nM) and IC50 values of test compounds evaluated using 11 concentrations (0.3-10,000 nM). Incubations were performed for 1 h at 4° C.
At the end of the incubation, membranes were filtered onto unifilter (96-well white microplate with bonded GF/C filter preincubated 1 h in 0.1% PEI in wash buffer, Packard BioScience, Meriden, Conn.) with a Filtermate 96 harvester (Packard BioScience) and washed 3 times with cold 50 mM Tris-HCl, pH 7.4 buffer. Nonspecific binding was measured in the presence of 10 μM MPEP. The radioactivity on the filter was counted (3 min) on a Packard Top-count microplate scintillation counter with quenching correction after addition of 45 μl of microscint 40 (Canberra Packard S.A., Zürich, Switzerland) and shaking for 20 min.
For binding experiments the Ki values of the compounds tested are given. The Ki value is defined by the following formula: Ki=IC50/[1+L/Kd] in which the IC50 values are those concentrations of the compounds tested which cause 50% inhibition of the competing radioligand ([^3H]MPEP). L is the concentration of radioligand used in the binding experiment and the Kd value of the radioligand is empirically determined for each batch of membranes prepared.

T1 sequence (P41594 21-1180 isoform P41594-2 limits assumed): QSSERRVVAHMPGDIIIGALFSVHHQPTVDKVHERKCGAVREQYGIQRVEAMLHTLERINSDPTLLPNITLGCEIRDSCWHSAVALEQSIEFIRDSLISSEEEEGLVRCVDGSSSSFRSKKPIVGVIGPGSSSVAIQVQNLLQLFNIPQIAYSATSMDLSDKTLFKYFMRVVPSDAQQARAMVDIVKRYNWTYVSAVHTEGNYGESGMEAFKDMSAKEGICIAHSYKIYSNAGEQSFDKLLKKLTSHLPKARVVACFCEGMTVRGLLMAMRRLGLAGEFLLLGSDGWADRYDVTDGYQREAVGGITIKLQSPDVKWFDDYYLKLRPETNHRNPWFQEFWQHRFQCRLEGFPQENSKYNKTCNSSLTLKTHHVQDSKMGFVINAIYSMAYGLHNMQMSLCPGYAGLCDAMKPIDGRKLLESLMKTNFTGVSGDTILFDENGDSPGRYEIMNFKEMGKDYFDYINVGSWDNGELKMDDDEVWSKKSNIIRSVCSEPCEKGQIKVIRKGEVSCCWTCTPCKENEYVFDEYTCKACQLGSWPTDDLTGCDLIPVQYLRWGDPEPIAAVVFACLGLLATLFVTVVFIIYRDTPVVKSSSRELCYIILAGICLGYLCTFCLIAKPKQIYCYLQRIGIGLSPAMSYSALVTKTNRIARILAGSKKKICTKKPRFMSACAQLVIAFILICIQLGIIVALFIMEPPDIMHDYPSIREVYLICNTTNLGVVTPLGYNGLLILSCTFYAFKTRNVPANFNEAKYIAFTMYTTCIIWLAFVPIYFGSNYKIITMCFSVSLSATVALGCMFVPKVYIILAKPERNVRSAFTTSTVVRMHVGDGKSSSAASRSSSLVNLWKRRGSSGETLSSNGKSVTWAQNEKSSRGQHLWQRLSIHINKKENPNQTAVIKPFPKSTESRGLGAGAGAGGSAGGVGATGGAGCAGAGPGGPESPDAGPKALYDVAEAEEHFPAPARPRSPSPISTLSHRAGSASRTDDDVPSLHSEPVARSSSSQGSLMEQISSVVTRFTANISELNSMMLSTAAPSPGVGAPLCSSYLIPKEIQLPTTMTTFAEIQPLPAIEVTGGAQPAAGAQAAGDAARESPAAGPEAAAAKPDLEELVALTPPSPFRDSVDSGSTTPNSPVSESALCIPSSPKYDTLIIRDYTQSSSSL

| Structure (SMILES) | Emax [1] | EC50 [1] | Ki [2] |
| --- | --- | --- | --- |
| O=C1CC2CCCN2N1c1ccc(C#Cc2ccccc2)cn1 (racemic) [Example 10, (RS)-1-(5-Phenylethynyl-pyridin-2-yl)-tetrahydro-pyrrolo[1,2-b]pyrazol-2-one] | 73% | 35 nM |  |
| O=C1CC2CCCN2N1c1ncc(C#Cc2ccccc2)cn1 (racemic) [Example 11, (RS)-1-(5-Phenylethynyl-pyrimidin-2-yl)-tetrahydro-pyrrolo[1,2-b]pyrazol-2-one] | 55% | 60 nM |  |
| O=C1CC2CCCN2N1c1ncc(C#Cc2ccc(F)cc2)cn1 (racemic) [Example 13, (RS)-1-[5-(4-Fluoro-phenylethynyl)-pyrimidin-2-yl]-tetrahydro-pyrrolo[1,2-b]pyrazol-2-one] | 58% | 41 nM |  |
| CCN1C(C(C)C)CC(=O)N1c1ccc(C#Cc2ccccc2)cn1 (racemic) [Example 23, (RS)-1-Ethyl-5-isopropyl-2-(5-phenylethynyl-pyridin-2-yl)-pyrazolidin-3-one] | 46% | 106 nM |  |
| CC1(C(F)(F)F)CC(=O)N(c2ccc(C#Cc3ccccc3)cn2)N1 (racemic) [Example 24, (RS)-5-Methyl-2-(5-phenylethynyl-pyridin-2-yl)-5-trifluoromethyl-pyrazolidin-3-one] | 92% | 71 nM |  |
| Cc1cccc(C#Cc2ccc(N3C(=O)CC(C)(C)N3C)nc2)c1 [Example 4, 1,5,5-Trimethyl-2-(5-m-tolylethynyl-pyridin-2-yl)-pyrazolidin-3-one] | 72% | 72 nM |  |
| CN1N(c2ccc(C#Cc3cccc(F)c3)cn2)C(=O)CC1(C)C [Example 6, 2-[5-(3-Fluoro-phenylethynyl)-pyridin-2-yl]-1,5,5-trimethyl-pyrazolidin-3-one] | 109% | 36 nM |  |
| CN1N(c2ccc(C#Cc3cccc(Cl)c3)cn2)C(=O)CC1(C)C [Example 7, 2-[5-(3-Chloro-phenylethynyl)-pyridin-2-yl]-1,5,5-trimethyl-pyrazolidin-3-one] | 55% | 90 nM |  |
| CC1(C)CC(=O)N(c2ncc(C#Cc3ccccc3)cn2)N1 [Example 9, 5,5-Dimethyl-2-(5-phenylethynyl-pyrimidin-2-yl)-pyrazolidin-3-one] | 39% | 46 nM |  |
| CN1N(c2ncc(C#Cc3ccc(F)cc3)cn2)C(=O)CC1(C)C [Example 16, 2-[5-(4-Fluoro-phenylethynyl)-pyrimidin-2-yl]-1,5,5-trimethyl-pyrazolidin-3-one] | 69% | 56 nM |  |
| CN1N(c2ncc(C#Cc3cc(F)ccc3F)cn2)C(=O)CC1(C)C [Example 17, 2-[5-(2,5-Difluoro-phenylethynyl)-pyrimidin-2-yl]-1,5,5-trimethyl-pyrazolidin-3-one] | 47% | 35 nM |  |
| CN1N(c2ccc(C#Cc3ccnc(Cl)c3)cn2)C(=O)CC1(C)C [Example 18, 2-[5-(2-Chloro-pyridin-4-ylethynyl)-pyridin-2-yl]-1,5,5-trimethyl-pyrazolidin-3-one] |  |  | 103 nM |
| CC1(C)CC(=O)N(c2ccc(C#Cc3cc(F)ccc3F)nn2)N1 [Example 19, 2-[6-(2,5-Difluoro-phenylethynyl)-pyridazin-3-yl]-5,5-dimethyl-pyrazolidin-3-one] | 86% | 86 nM |  |
| CC1(C)CC(=O)N(c2ccc(C#Cc3cc(F)ccc3F)cn2)N1 [Example 20, 2-[5-(2,5-Difluoro-phenylethynyl)-pyridin-2-yl]-5,5-dimethyl-pyrazolidin-3-one] |  |  | 69.7 nM |
| CCN1N(c2ccc(C#Cc3ccccc3)cn2)C(=O)CC1(C)C [Example 21, 1-Ethyl-5,5-dimethyl-2-(5-phenylethynyl-pyridin-2-yl)-pyrazolidin-3-one] |  |  | 53.5 nM |

Now from value to molecule:

| Emax [1] | EC50 [1] | Ki [2] | Structure (SMILES) |
| --- | --- | --- | --- |
| 73% | 24 nM |  | CC(C)C1CC(=O)N(c2ccc(C#Cc3ccccc3)cn2)N1 (racemic) [Example 2, (RS)-5-Isopropyl-2-(5-phenylethynyl-pyridin-2-yl)-pyrazolidin-3-one] |
| 59% | 22 nM |  | O=C1CC2CCCN2N1c1ncc(C#Cc2cccc(F)c2)cn1 (racemic) [Example 12, (RS)-1-[5-(3-Fluoro-phenylethynyl)-pyrimidin-2-yl]-tetrahydro-pyrrolo[1,2-b]pyrazol-2-one] |
| 60% | 7 nM |  | CC1(C)CC(=O)N(c2ccc(C#Cc3ccccc3)cn2)N1 [Example 1, 5,5-Dimethyl-2-(5-phenylethynyl-pyridin-2-yl)-pyrazolidin-3-one] |
| 96% | 30 nM |  | CN1N(c2ccc(C#Cc3ccccc3)cn2)C(=O)CC1(C)C [Example 3, 1,5,5-Trimethyl-2-(5-phenylethynyl-pyridin-2-yl)-pyrazolidin-3-one] |
| 31% | 13 nM |  | CC1(C)CC(=O)N(c2ccc(C#Cc3cccc(F)c3)cn2)N1 [Example 5, 2-[5-(3-Fluoro-phenylethynyl)-pyridin-2-yl]-5,5-dimethyl-pyrazolidin-3-one] |
| 38% | 13 nM |  | CC1(C)CC(=O)N(c2ccc(C#Cc3ccc(F)cc3)cn2)N1 [Example 8, 2-[5-(4-Fluoro-phenylethynyl)-pyridin-2-yl]-5,5-dimethyl-pyrazolidin-3-one] |
| 66% | 33 nM |  | CN1N(c2ncc(C#Cc3ccccc3)cn2)C(=O)CC1(C)C [Example 14, 1,5,5-Trimethyl-2-(5-phenylethynyl-pyrimidin-2-yl)-pyrazolidin-3-one] |
| 61% | 34 nM |  | CN1N(c2ncc(C#Cc3cccc(F)c3)cn2)C(=O)CC1(C)C [Example 15, 2-[5-(3-Fluoro-phenylethynyl)-pyrimidin-2-yl]-1,5,5-trimethyl-pyrazolidin-3-one] |
